Assay results as given in US9145405B2, “Oxadiazole compound and preparation method thereof, pharmaceutical composition and use thereof” (SHANGHAI JIAO TONG UNIVERSITY, priority 2011, dated 2015).
Converted amounts (≈) assume the structure as drawn. Like-named read-outs stand apart in the source and are kept apart here.

How the values were obtained:
Vero cells = assay: Toxicity (half toxic concentration) in the anti-Cox_B3 test on Vero cells; format: cell-based
Cox_B3 virus = assay: Anti-Cox_B3 test: inhibition of cytopathic effect (CPE) in infected Vero cells, Reed-Muench; format: cell-based; conditions: Cox_B3 virus in Vero cells, CPE, Reed-Muench method; for IC50: read-out: IC50 (half-inhibitory concentration for viruses)
Source text: The present examples verifies experimental results of anti-Cox_B3 of the compounds 1-137of the present invention, Pleconaril, 3-[3,5-dimethyl-4-[5-(3-methy-1,2-oxazolyl)propoxy]phenyl]-5-(trifluonomethyl) -1,2,4-oxadiazole is used as positive control.

Compound | TC50 (half of the toxic concentration) (Vero cells) [µg/mL] | IC50 (half-inhibitory concentration for viruses) (Cox_B3 virus) [µg/mL] | TC50 (half of the toxic concentration) (Vero cells; Vero cells, Cox_B3) [µg/mL] | IC50 (Cox_B3 virus) [µg/mL]
3-[3,5-dimethyl-4-[2-(4-methylthiazole-2-thio)ethoxyl]phenyl]-5-(trifluoromethyl)-1,2,4-oxadiazole [Compound 68] | 43.87 | 0.38 | – | –
Cc1cc(-c2nc(C(F)(F)F)no2)cc(C)c1OCCOc1noc(C(F)(F)F)n1 [Compound 22] | 40.78 | 0.08 | – | –
Cc1cc(-c2noc(C(F)(F)F)n2)cc(C)c1OCCSc1nnc(C(F)(F)F)[nH]1 [Compound 26, 3-[2-[2,6-dimethyl-4-[5-(trifluoromethyl)-1,2,4-oxadiazole-3-yl]phenoxyl]ethylthio]-5-trifluoromethyl-4H-1,2,4-triazole] | – | – | 38.35 | 0.06 (≈ 0.132 µM)
Cc1nc(-c2ccc(OCCCOc3c(C)cc(-c4noc(C(F)(F)F)n4)cc3C)cc2)no1 [Compound 117, 3-[3,5-dimethyl-4-[3-[4-(5-methyl-1,2,4-oxadiazole-3-yl]phenoxyl]propoxy]phenyl]-5-(trifluoromethyl)-1,2,4-oxadiazole] | – | – | 33.28 | 0.033 (≈ 0.0696 µM)
3-[2,6-dimethyl-4-[(5-(trifluoromethyl)-1,2,4-oxadiazole-3-yl)phenoxyl]ethoxyl]-6-methylpyridazine [Compound 56] | 22.22 | 0.20 | – | –
COC(=O)c1cnc(OCCOc2c(C)cc(-c3noc(C)n3)cc2C)c(F)c1 [Compound 103] | 39.55 | 0.07 | – | –
COC(=O)c1cnc(OCCOc2c(C)cc(-c3noc(C(F)(F)F)n3)cc2C)c(F)c1 [Compound 49, 6-[2,6-dimethyl-4-[(5-(trifluoromethyl)-1,2,4-oxadiazole-3-yl)phenoxyl]ethoxyl]-5-fluoro-3-pyridinecarboxylate] | 35.36 | 0.096 | – | –
Cc1cc(-c2noc(C(F)(F)F)n2)cc(C)c1OCCCOc1ncc(-c2noc(C(F)(F)F)n2)cn1 [Compound 136, 2-[3-[2,6-dimethyl-4-[5-(trifluoromethyl)-1,2,4-oxadiazole-3-yl]phenoxyl]propoxy]-5-[5-(trifluoromethyl)-1,2,4-oxadiazole-3-yl]-pyrimidine] | – | – | 41.23 | 0.04 (≈ 0.0754 µM)
6-[2,6-dimethyl-4-[(5-(trifluoromethyl)-1,2,4-oxadiazole-3-yl)phenoxyl]ethoxyl]-5-fluoro-2-hydroxyl-3-cyanopyridine [Compound 48] | 42.12 | 0.15 | – | –
4-[2,6-dimethyl-4-[(5-(trifluoromethyl)-1,2,4-oxadiazole-3-yl)phenoxyl]ethoxyl]-2-methoxyl-5-fluoropyrimidine [Compound 108] | 47.58 | 0.078 | – | –
Cc1nc(-c2cnc(OCCCOc3c(C)cc(-c4noc(C(F)(F)F)n4)cc3C)c(F)c2)no1 [Compound 121, 2-[3-[2,6-dimethyl-4-[5-(trifluoromethyl)-1,2,4-oxadiazole-3-yl]phenoxyl]propoxy]-3-fluoro-5-(5-methyl-1,2,4-oxadiazole-3-yl)-pyridine] | – | – | 36.17 | 0.039 (≈ 0.079 µM)
Cc1cc(OCCCOc2c(C)cc(-c3noc(C(F)(F)F)n3)cc2C)ns1 [Compound 11, 3-[3,5-dimethyl-4-[3-(5-methylisothiazole-3-oxy)propoxy]phenyl]-5-(trifluoromethyl)-1,2,4-oxadiazole] | – | – | 45.87 | 0.058 (≈ 0.14 µM)
Cc1cc(-c2noc(C(F)(F)F)n2)cc(C)c1OCCCOc1ncc(C#N)cn1 [Compound 132, 2-[3-[2,6-dimethyl-4-[5-(trifluoromethyl)-1,2,4-oxadiazole-3-yl]phenoxyl]propoxy]-5-cyano-pyrimidine] | – | – | 39.23 | 0.04 (≈ 0.0954 µM)
